The results in this text go back to patent US12371454B2, “Cyclic peptide compound having Kras inhibitory action” (priority 2019, dated 2025).

Each structure is given as a SMILES string. Starred links: 1 amine or outer side, 2 acyl side, 3 side chain; linkers in the order of their positions; H or OH if unused. Positions of bridges follow the written chain, without caps; N, C: chain ends. Non-standard residues stand in square brackets, D forms with d. Residues, ends and D or L forms follow the SMILES beside them. *: point of attachment. hPhe(3-Cl-4-CF3) = N[C@@H](CCc1ccc(C(F)(F)F)c(Cl)c1)C(=O)O; hPhe(3-F,4-CF3) = N[C@@H](CCc1ccc(C(F)(F)F)c(F)c1)C(=O)O; NMePhe(3-CN) = CN[C@@H](Cc1cccc(C#N)c1)C(=O)O; NMePhe(3-Br) = CN[C@@H](Cc1cccc(Br)c1)C(=O)O; X35 = CN([C@@](C)(Cc1ccccc1)C(=O)[*:2])[*:1]; NMePhe(4-Me) = CN[C@@H](Cc1ccc(C)cc1)C(=O)O; NMePhe(4-I) = CN[C@@H](Cc1ccc(I)cc1)C(=O)O; hPhe(3-Cl) = N[C@@H](CCc1cccc(Cl)c1)C(=O)O; Abu(4,4,4-F3) = N[C@@H](CC(F)(F)F)C(=O)O; NMeGly(cPent) = CN[C@H](C(=O)O)C1CCCC1; Phe(3-I) = N[C@@H](Cc1cccc(I)c1)C(=O)O; NMehPhe = CN[C@@H](CCc1ccccc1)C(=O)O; NMeY = CN[C@@H](Cc1ccc(O)cc1)C(=O)O; NMeCha = CN[C@@H](CC1CCCCC1)C(=O)O; Azetidine(3,3-F2) = FC1(F)CN(*)C1; NMeChg = CN[C@H](C(=O)O)C1CCCCC1; NMeI = CC[C@H](C)[C@H](NC)C(=O)O; hPhe = N[C@@H](CCc1ccccc1)C(=O)O; NMeD = CN[C@@H](CC(=O)O)C(=O)O; NMeL = CN[C@@H](CC(C)C)C(=O)O; NMeNva = CCC[C@H](NC)C(=O)O; NMeV = CN[C@H](C(=O)O)C(C)C; d(β3hA) = C[C@@H](N)CC(=O)O; NMeS = CN[C@@H](CO)C(=O)O; Morpholide = C1CN(*)CCO1; NMeA = CN[C@@H](C)C(=O)O; NMeAib = CNC(C)(C)C(=O)O; Nle = CCCC[C@H](N)C(=O)O; Piperidide = C1CCN(*)CC1; dNMeA = CN[C@H](C)C(=O)O; Ac5c = NC1(C(=O)O)CCCC1; Aze = O=C(O)[C@@H]1CCN1; Ac4c = NC1(C(=O)O)CCC1; Sar = CNCC(=O)O; Propyl = CCC*

The target in this experiment is T1, Kras and SOS1 (biotin-tagged human Kras loaded with GDP, His-tagged human SOS1) (Homo sapiens, UniProt P01116, G12D).
T1 construct: made in house; host or cells: E. coli (stated for Kras only)
T1 sequence (P01116 1-188 isoform P01116-2 G12D): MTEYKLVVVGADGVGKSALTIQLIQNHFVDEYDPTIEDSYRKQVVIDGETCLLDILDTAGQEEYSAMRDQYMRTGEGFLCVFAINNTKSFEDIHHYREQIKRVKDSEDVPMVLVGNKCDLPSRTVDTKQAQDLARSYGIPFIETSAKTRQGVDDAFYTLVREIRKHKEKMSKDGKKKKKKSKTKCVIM
The experiment in a line: Protein-protein interaction inhibition between Kras and SOS1 (KrasGl2D-SOS PPI) using AlphaScreen. It is filed as binding. The settings on record: AlphaScreen; biotin-tagged human Kras loaded with GDP, His-tagged human SOS1; read-out: KRAS G12D-SOS PPI IC50. An outline of the steps: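 Read-out is acceptor-bead light at 520-620 nm, arising when 680 nm-irradiated nickel donor beads pass singlet oxygen to streptavidin acceptors. The bead pair links His-tagged SOS1 with biotin-tagged, GDP-bound Kras from E. coli.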
In general terms: In Alpha technology, singlet oxygen from a donor bead excites a nearby acceptor bead.
Take `CCC[C@H]1C(=O)N[C@@H]([C@@H](C)CC)C(=O)N(C)[C@@H](C)C(=O)N2CC[C@H]2C(=O)N(C)[C@@H](CC2CCCCC2)C(=O)N(C)CC(=O)N[C@@H](CCc2ccc(C(F)(F)F)c(Cl)c2)C(=O)N2CCC[C@H]2C(=O)NC2(CCCC2)C(=O)N(C)[C@@H](C2CCCC2)C(=O)N(C)[C@H](C(=O)N2CCCCC2)CC(=O)N1C` [Compound 391, (5S,8S,11S,15S,18S,23aS,29S,35S,37aS)-8-((S)-sec-butyl)-29-(3-chloro-4-(trifluoromethyl)phenethyl)-35-(cyclohexylmethyl)-18-cyclopentyl-5,6,12,16,19,33,36-heptamethyl-15-(piperidine-1-carbonyl)-11-propyldocosahydro-2H,4H-spiro[azeto[2,1-u]pyrrolo[2,1-i][1,4,7,10,13,16,19,22,25,28,31]undecaazacyclotetratriacontine-21,1′-cyclopentan]-4,7,10,13,17,20,23,28,31,34,37(14H,22H)-undecaone] ([NMeNva]I[NMeA][Aze][NMeCha][Sar][hPhe(3-Cl-4-CF3)]P[Ac5c][NMeGly(cPent)][NMeD]-Piperidide; lactam N-11): the IC50 was 0.4 nM. As for `CC[C@H](C)[C@@H]1NC(=O)[C@H](C)N(C)C(=O)C[C@@H](C)NC(=O)[C@H](C(C)C)N(C)C(=O)C2(CCCC2)NC(=O)[C@@H]2CCCN2C(=O)[C@H](CCc2ccc(C(F)(F)F)c(Cl)c2)NC(=O)[C@H]2CCCN2C(=O)[C@H](CC2CCCCC2)N(C)C(=O)[C@@H]2CCCN2C(=O)CN(C)C1=O` [Compound 666] (cyclo([Ac5c][NMeV][d(β3hA)][NMeA]I[Sar]P[NMeCha][dP][hPhe(3-Cl-4-CF3)]P)), the figure is 25 nM; as for `CC[C@H](C)[C@@H]1NC(=O)[C@H](CC(C)C)N(C)C(=O)C[C@@H](C(=O)N(C)C)N(C)C(=O)[C@H]([C@@H](C)CC)N(C)C(=O)C2(CCCC2)NC(=O)[C@H](Cc2ccc(I)cc2)N(C)C(=O)[C@H](CCc2ccc(C(F)(F)F)c(Cl)c2)NC(=O)CN(C)C(=O)[C@H](Cc2ccc(C)cc2)N(C)C(=O)[C@@H]2CCN2C(=O)[C@H](C)N(C)C1=O` [Compound 1888] ([NMeL]I[NMeA][Aze][NMePhe(4-Me)][Sar][hPhe(3-Cl-4-CF3)][NMePhe(4-I)][Ac5c][NMeI][NMeD]-NMe2; lactam N-11), 53 nM; as for `CC[C@H](C)[C@@H]1NC(=O)[C@H](C)N(C)C(=O)C[C@@H](C(=O)N(C)C)N(C)C(=O)[C@H]([C@@H](C)CC)N(C)C(=O)C2(CCCC2)NC(=O)[C@H](Cc2cccc(Br)c2)N(C)C(=O)[C@H](CCc2ccc(C(F)(F)F)c(Cl)c2)NC(=O)CN(C)C(=O)[C@H](Cc2ccc(C)cc2)N(C)C(=O)[C@@H]2CCN2C(=O)[C@H](C)N(C)C1=O` [Compound 2000] ([NMeA]I[NMeA][Aze][NMePhe(4-Me)][Sar][hPhe(3-Cl-4-CF3)][NMePhe(3-Br)][Ac5c][NMeI][NMeD]-NMe2; lactam N-11), 15 nM. `CC[C@H](C)[C@@H]1NC(=O)[C@H](CC(C)C)N(C)C(=O)C[C@@H](C(=O)N(C)C)N(C)C(=O)[C@H](C2CCCC2)N(C)C(=O)C2(CCCC2)NC(=O)[C@H](CC(=O)N2CC(F)(F)C2)N(C)C(=O)[C@H](CCc2ccc(C(F)(F)F)c(Cl)c2)NC(=O)CN(C)C(=O)[C@H](CC2CCCCC2)N(C)C(=O)[C@@H]2CCN2C(=O)[C@H](C)N(C)C1=O` [Compound 761] ([NMeL]I[NMeA][Aze][NMeCha][Sar][hPhe(3-Cl-4-CF3)][NMeD](Azetidine(3,3-F2))[Ac5c][NMeGly(cPent)][NMeD]-NMe2; lactam N-11): the IC50 was 0.57 nM. Regarding `CC[C@H](C)[C@@H]1NC(=O)[C@H](CC(C)C)N(C)C(=O)C[C@@H](C(=O)N2CCCCC2)N(C)C(=O)[C@H](CC(C)C)NC(=O)C(C)(C)N(C)C(=O)[C@H](CCc2ccccc2)NC(=O)[C@H](Cc2cccc(I)c2)NC(=O)CN(C)C(=O)[C@H](Cc2ccc(C)cc2)N(C)C(=O)[C@@H]2CCN2C(=O)[C@H](C)N(C)C1=O` [Compound 617] ([NMeL]I[NMeA][Aze][NMePhe(4-Me)][Sar][Phe(3-I)][hPhe][NMeAib]L[NMeD]-Piperidide; lactam N-11), the IC50 stood at 110 nM. With `CCCC[C@@H]1NC(=O)[C@H](Cc2cccc(I)c2)NC(=O)CN(C)C(=O)[C@H](Cc2ccc(OC)cc2)N(C)C(=O)[C@@H]2CCN2C(=O)CN(C)C(=O)[C@H]([C@@H](C)CC)NC(=O)[C@H](CC(C)C)N(C)C(=O)C[C@@H](C(=O)N2CCCCC2)N(C)C(=O)[C@H](CC(C)C)NC(=O)[C@](C)(Cc2ccccc2)N(C)C1=O` [Compound 1058] ([NMeL]I[Sar][Aze][NMeY](Me)[Sar][Phe(3-I)][Nle][X35]L[NMeD]-Piperidide; lactam N-11), the IC50 stood at 14 nM. With `CC(C)C[C@H]1C(=O)N[C@@H](CC(F)(F)F)C(=O)N(C)[C@@H](C)C(=O)N2CC[C@H]2C(=O)N(C)[C@@H](CC2CCCCC2)C(=O)N(C)CC(=O)N[C@@H](CCc2ccc(C(F)(F)F)c(Cl)c2)C(=O)N2CCC[C@H]2C(=O)NC2(CCCC2)C(=O)N(C)[C@@H](C(C)C)C(=O)N(C)[C@H](C(=O)N2CCCCC2)CC(=O)N1C` [Compound 1864] ([NMeL][Abu(4,4,4-F3)][NMeA][Aze][NMeCha][Sar][hPhe(3-Cl-4-CF3)]P[Ac5c][NMeV][NMeD]-Piperidide; lactam N-11), the IC50 was determined as 48 nM. Turning to `CC[C@H](C)[C@@H]1NC(=O)[C@H](C)N(C)C(=O)C[C@@H](C(=O)N(C)C)N(C)C(=O)[C@H]([C@@H](C)CC)N(C)C(=O)C2(CCCC2)NC(=O)[C@H](Cc2cccc(C#N)c2)N(C)C(=O)[C@H](CCc2ccc(C(F)(F)F)c(Cl)c2)NC(=O)CN(C)C(=O)[C@H](Cc2ccc(C)cc2)N(C)C(=O)[C@@H]2CCN2C(=O)[C@H](C)N(C)C1=O` [Compound 1981] ([NMeA]I[NMeA][Aze][NMePhe(4-Me)][Sar][hPhe(3-Cl-4-CF3)][NMePhe(3-CN)][Ac5c][NMeI][NMeD]-NMe2; lactam N-11), the IC50 is 5.1 nM.

For the compound `CCC[C@H]1C(=O)NC2(CCCC2)C(=O)N(C)[C@@H](C2CCCCC2)C(=O)N(C)[C@H](C(=O)N2CCCCC2)CC(=O)N(C)[C@@H](CC(C)C)C(=O)N[C@@H]([C@@H](C)CC)C(=O)N(C)CC(=O)N2CCC[C@H]2C(=O)N(C)[C@@H](CC2CCCCC2)C(=O)N(C)CC(=O)N[C@@H](CCc2ccc(C(F)(F)F)c(Cl)c2)C(=O)N1C` [Compound 392] ([NMeL]I[Sar]P[NMeCha][Sar][hPhe(3-Cl-4-CF3)][NMeNva][Ac5c][NMeChg][NMeD]-Piperidide; lactam N-11), the IC50 is 12 nM. In the case of `CC[C@H](C)[C@@H]1NC(=O)[C@H](C)N(C)C(=O)C[C@@H](C(=O)N2CCCCC2)N(C)C(=O)[C@H](C2CCCCC2)N(C)C(=O)C2(CCCC2)NC(=O)[C@@H]2CCCN2C(=O)[C@H](CCc2cccc(Cl)c2)NC(=O)CN(C)C(=O)[C@H](CC2CCCCC2)N(C)C(=O)CN(C)C(=O)CN(C)C1=O` [Compound 954] ([NMeA]I[Sar][Sar][NMeCha][Sar][hPhe(3-Cl)]P[Ac5c][NMeChg][NMeD]-Piperidide; lactam N-11), the IC50 turned out to be 1.9 nM. Regarding `CC[C@H](C)[C@@H]1NC(=O)[C@H](CC(C)C)N(C)C(=O)C[C@@H](C)NC(=O)[C@H](C(C)C)N(C)C(=O)C2(CCCC2)NC(=O)[C@@H]2CCCN2C(=O)[C@H](CCc2ccc(C(F)(F)F)c(Cl)c2)NC(=O)CN(C)C(=O)[C@H](CCc2ccccc2)N(C)C(=O)CN(C)C(=O)CN(C)C1=O` [Compound 1627] (cyclo([Ac5c][NMeV][d(β3hA)][NMeL]I[Sar][Sar][NMehPhe][Sar][hPhe(3-Cl-4-CF3)]P)), the IC50 was 15 nM. In the case of `CC[C@H](C)[C@@H]1NC(=O)[C@H](C)N(C)C(=O)C[C@@H](C(=O)N2CCCCC2)N(C)C(=O)[C@H](C(C)C)N(C)C(=O)C2(CCCC2)NC(=O)[C@@H]2CCCN2C(=O)[C@H](CCc2ccc(C(F)(F)F)c(Cl)c2)NC(=O)[C@@H](C)N(C)C(=O)[C@H](CC2CCCCC2)N(C)C(=O)CN(C)C(=O)CN(C)C1=O` [Compound 380] ([NMeA]I[Sar][Sar][NMeCha][dNMeA][hPhe(3-Cl-4-CF3)]P[Ac5c][NMeV][NMeD]-Piperidide; lactam N-11), the IC50 was 5.6 nM. As to `CC[C@H](C)[C@@H]1NC(=O)[C@H](CC(C)C)N(C)C(=O)C[C@@H](C)NC(=O)[C@H](CC(C)C)N(C)C(=O)C2(CCC2)NC(=O)[C@@H]2CCCN2C(=O)[C@H](CCc2ccc(C(F)(F)F)c(F)c2)NC(=O)CN(C)C(=O)[C@H](CC2CCCCC2)N(C)C(=O)CN(C)C(=O)CN(C)C1=O` [Compound 133] (cyclo([Ac4c][NMeL][d(β3hA)][NMeL]I[Sar][Sar][NMeCha][Sar][hPhe(3-F,4-CF3)]P)), the concentration for half-maximal inhibition (IC50) came out at 23 nM.

With `CCCOC[C@H]1C(=O)N(C)CC(=O)N[C@@H](CCc2ccc(C(F)(F)F)c(Cl)c2)C(=O)N2CCC[C@H]2C(=O)NC2(CCCC2)C(=O)N(C)[C@@H](C2CCCC2)C(=O)N(C)[C@H](C(=O)N2CCOCC2)CC(=O)N(C)[C@@H](CC(C)C)C(=O)N[C@@H]([C@@H](C)CC)C(=O)N(C)[C@@H](C)C(=O)N2CC[C@H]2C(=O)N1C` [Compound 974] ([NMeL]I[NMeA][Aze][NMeS](Propyl)[Sar][hPhe(3-Cl-4-CF3)]P[Ac5c][NMeGly(cPent)][NMeD]-Morpholide; lactam N-11), the IC50 came to 0.91 nM. Consider `CC[C@H](C)[C@@H]1NC(=O)[C@H](CC(C)C)N(C)C(=O)C[C@@H](C)NC(=O)[C@H](C2CCCC2)N(C)C(=O)[C@H](C(C)C)NC(=O)[C@@H]2CCCN2C(=O)[C@H](CCc2ccc(C(F)(F)F)c(Cl)c2)NC(=O)CN(C)C(=O)[C@H](Cc2ccc(C)cc2)N(C)C(=O)[C@@H]2CCN2C(=O)[C@H](C)N(C)C1=O` [Compound 933] (cyclo([Aze][NMePhe(4-Me)][Sar][hPhe(3-Cl-4-CF3)]PV[NMeGly(cPent)][d(β3hA)][NMeL]I[NMeA])), for which the IC50 came to 83 nM.

The IC50 is the point on the concentration scale where inhibition reaches its midpoint.
